Results from article PMC11154582, “Modeling the Blood-Brain Barrier Permeability of Potential Heterocyclic Drugs via Biomimetic IAM Chromatography Technique Combined with QSAR Methodology” (Molecules, 2024).
Read-outs that look alike come from different tables or passages of the source.

Legend:
[1] = design: method as in ref [14] (a number printed in a supplementary file, which may have a reference list of its own: not looked up in the article's list); settings: supplement ref [14]; cited from earlier work
[2] = IAM column, cited from earlier work
[3] = system: oxidatively-stressed erythrocytes; settings: supplement ref [4,19,26,30]; cited from earlier work
[4] = system: central nervous system of mice; design: method as in PMID 24157086; settings: preliminary tests, ref [21]; cited from earlier work
[5] = design: method as in ref [8,16] (a number printed in a supplementary file, which may have a reference list of its own: not looked up in the article's list); settings: supplement ref [8,16]; cited from earlier work
[6] = design: method as in ref [22] (a number printed in a supplementary file, which may have a reference list of its own: not looked up in the article's list); settings: supplement ref [22]; cited from earlier work
[7] = system: hepatic adenosine A2A receptors; design: method as in ref [22] (a number printed in a supplementary file, which may have a reference list of its own: not looked up in the article's list); settings: antagonizes stimulatory effect of a selective A2A receptor agonist; supplement ref [22]; cited from earlier work
[8] = design: method as in ref [21,22] (a number printed in a supplementary file, which may have a reference list of its own: not looked up in the article's list); settings: supplement ref [21,22]; cited from earlier work
[9] = Biomimetic IAM chromatography (log kw, IAM); format: physicochemical; settings: IAM.PC.DD2 column, buffered acetonitrile, pH 7.4, 25 °C, extrapolated to buffer
Method: High performance liquid chromatography (HPLC) measurements were performed on a Shimadzu Vp liquid chromatographic system (Shimadzu, Izabelin, Poland). This instrument was equipped with LC 10AT pump, SPD 10A ultraviolet-visible detector, SCL 10A system controller, CTO-10 AS chromatographic oven, and a Rheodyne injector valve with a 20 μL loop. As the stationary phase Regis IAM.PC.DD2 column, 100 × 4.6 mm i.d., 10 μm (Morton Grove, IL, USA) was applied.
Buffered acetonitrile mixtures were used as effluents. Acetonitrile concentration, expressed as a volume fraction, was varied within a range from 0.2 to 0.5, with a constant step of 0.1. The buffer was prepared from 0.01 mol L^−1 solutions of Na2HPO4 and citric acid, and a pH value of 7.4 was fixed before mixing with an organic modifier. The flow rate was 1.3 mL min^−1. Each compound sample was dissolved in acetonitrile to obtain a concentration of 0.005 mg mL^−1, and each solute peak was detected under ultraviolet light at a wavelength of λmax = 254 nm. Each measurement was performed at a constant temperature (25 °C) at least three times. The dead time values were measured from sodium chloride peaks.
From among 126 heterocyclic compounds evaluated in this work (Table 1), 89 structures have been investigated previously on the IAM column: these are molecules from groups III, IV, V, VI, VII, VIII, IX, XI, XIII, and XV [21, 22, 23]. The remaining ones, i.e., 37 compounds from groups I, II, X, XII and XIV, were tested in this study for the first time using the biomimetic IAM chromatographic technique. To calculate the log kw values (i.e., the logarithms of retention parameter in the buffer as the mobile phase), the retention parameters, logs k (k = (tr − t0)/t0; where tr is the solute retention time, and t0 is a dead time), that were measured for all tested compounds, were used according to Soczewiński-Wachtmeister’s equation (Equation (5)): (5) log k=logtr−t0/t0=log kw−sφ where φ denotes the volume fraction of acetonitrile as organic modifier in the mobile phase, and kw means the retention parameter corresponding to buffer as the mobile phase. The log kw values were evaluated as linear regression coefficients (Table 2).

[10] = system: Staphylococcus aureus ATCC 25923; design: method as in ref [3] (a number printed in a supplementary file, which may have a reference list of its own: not looked up in the article's list); settings: versus ampicillin; supplement ref [3]; cited from earlier work
bacteria = system: bacteria; design: method as in ref [3] (a number printed in a supplementary file, which may have a reference list of its own: not looked up in the article's list); settings: supplement ref [3], cited from earlier work
[11] = system: zebrafish embryos and larvae; design: method as in ref [18,20] (a number printed in a supplementary file, which may have a reference list of its own: not looked up in the article's list); settings: versus anticancer agent pemetrexed; supplement ref [18,20]; cited from earlier work
Pseudomonas aeruginosa = system: Pseudomonas aeruginosa; design: method as in ref [3] (a number printed in a supplementary file, which may have a reference list of its own: not looked up in the article's list); settings: versus chloramphenicol and ampicillin; supplement ref [3]; cited from earlier work
human cancer cells [12] = system: human cancer cells; design: method as in ref [3,9,10,13,18-21] (a number printed in a supplementary file, which may have a reference list of its own: not looked up in the article's list); settings: supplement ref [3,9,10,13,18-21]; cited from earlier work
human cancer cells [13] = system: human cancer cells; design: method as in ref [3-7,9-15,17-21] (a number printed in a supplementary file, which may have a reference list of its own: not looked up in the article's list); settings: supplement ref [3-7,9-15,17-21]; cited from earlier work
[14] = design: method as in ref [19] (a number printed in a supplementary file, which may have a reference list of its own: not looked up in the article's list); settings: supplement ref [19]; cited from earlier work

For `Cc1cccc(N2CCn3c2nnc(-c2ccccc2)c3=O)c1` [Compound 83], the antimetastatic activity [1] is given as “antimetastatic”, the “log kw, IAM” value ([2]; ref [23]) is given as 2.26 and the antihemolytic activity [3] is given as “antihemolytic”. For the same compound, the analgesic activity [4] was “analgesic activity”, the toxicity [4] was “low toxicity” and the analgesic activity [5] was “analgesic”.

In the case of `O=c1c(-c2ccccc2)nnc2n1CCN2c1ccccc1Cl` [Compound 89], the “log kw, IAM” value ([2]; ref [23]) is listed as 1.73, the antihemolytic activity [3] is listed as “antihemolytic” and the analgesic activity [4] is listed as “analgesic activity”. The toxicity [4] was “low toxicity” and the analgesic activity [5] was “analgesic”.

In the case of `O=c1c(-c2ccccc2)nnc2n1CCN2c1ccc(Cl)c(Cl)c1` [Compound 92], the “log kw, IAM” value ([2]; ref [23]) is given as 3.26, the antihemolytic activity [3] is given as “antihemolytic” and the analgesic activity [5] is given as “analgesic”.

In the case of `COc1ccc(N2CCn3c2nnc(C(=O)NN)c3=O)cc1` [Compound 53], the “scavenging of the superoxide anion radical” value [6] is given as “able to scavenge”, the “action towards hepatic adenosine A2A receptors” value [7] is given as “antagonistic” and the “log kw, IAM” value ([2]; ref [21]) is given as −0.10. The antiradical activity [8] was “antiradical” and the analgesic activity [5] was “analgesic”.

For `Cc1ccc(N2CCn3c(COc4ccc(Cl)cc4C)nnc32)cc1` [Compound 9], the “log kw, IAM” value [9] is given as 1.95, the “antibacterial activity against Staphylococcus aureus ATCC 25923” value [10] is given as “comparable” and the antibacterial activity (bacteria) is given as “antibacterial”.

In the case of `O=c1c(C(F)(F)F)nnc2n1CCN2c1ccccc1` [Compound 15], the “log kw, IAM” value ([2]; ref [22]) is listed as 0.94 and the “toxicity for zebrafish embryos and larvae compared with pemetrexed” value [11] is listed as “lower”.

For `Clc1ccc(OCc2nnc3n2CCN3c2ccc(Cl)c(Cl)c2)c(Cl)c1` [Compound 13], the “log kw, IAM” value [9] is listed as 2.91, the “antibacterial potency against Pseudomonas aeruginosa ATCC 25923” value (Pseudomonas aeruginosa) is listed as “superior” and the “selectivity of antibacterial activity” value (bacteria; Gram-negative strains) is listed as “selective activity on Gram-negative strains of bacteria”. For the same compound, the antibacterial activity (bacteria) was “antibacterial”.

In the case of `Cc1ccccc1N1CCn2c1nnc(C(F)(F)F)c2=O` [Compound 16], the “log kw, IAM” value ([2]; ref [22]) is listed as 0.76, the “toxicity for zebrafish embryos and larvae compared with pemetrexed” value [11] is listed as “lower” and the “mechanism of antiproliferative action: promoting apoptotic caspases” value (human cancer cells [12]) is listed as “promoting apoptotic caspases”.

In the case of `NNC(=O)c1nnc2n(c1=O)CCN2c1ccc(Cl)c(Cl)c1` [Compound 55], the “log kw, IAM” value ([2]; ref [21]) is given as 0.69 and the antiradical activity [8] is given as “antiradical”.

In the case of `COc1ccc(N2CCn3c2nnc(CC(=O)NN)c3=O)cc1` [Compound 58], the “log kw, IAM” value [9] is given as −0.27 and the antiradical activity [8] is given as “antiradical”.

For `COc1ccc(N2CCn3c2nnc(-c2ccccc2)c3=O)cc1` [Compound 86], the antitumor activity (human cancer cells [13]) is given as “antitumor”, the antimetastatic activity [1] is given as “antimetastatic” and the “log kw, IAM” value ([2]; ref [23]) is given as 1.71.

In the case of `CCc1nnc2n(c1=O)CCN2c1ccc(Cl)c(Cl)c1` [Compound 28], the “log kw, IAM” value ([2]; ref [23]) is given as 1.85 and the antiviral activity [14] is given as “antiviral”.
